Results on 17 compounds are retold here after patent US4585861A, “1,2,4-triazine derivatives” (Eli Lilly and Company, priority 1985, dated 1986).

Assay [1] is described as follows: Appetite Suppression Assay. It counts as in vivo, Cox standard strain albino male mice. The note with it: Mus musculus. As for the experimental part: In this test, groups of three Cox standard strain albino male mice were weighed (18-24 grams) and then fasted overnight (16-18 hours). The mice were reweighed and then given the test compound in a suspension of acacia (5%) by gavage. Thirty minutes after oral administration, the mice were allowed to eat freely for one hour. After the eating period, the mice were weighed once more. The percent of weight gained (from the time the mice were given the test compound to after the feeding period) compared to weight lost during the fast period was calculated. The non-drug treated control animals gained back 35-55% of the weight lost on fasting. Any compound at the dose level tested which produced a weight gain of less than 10% was considered to be active. The results in Table 2 report the lowest dose level in which there was activity for each compound tested. Dextroamphetamine sulfate is active in this system at about 2.5 mg./kg.

Assay [2] can be described thus: Mouse Writhing Inhibition Assay. It counts as in vivo, Cox standard strain albino male mice. On the procedure: Writhing, which is characterized by contraction of the abdominal musculature, extension of the hindlegs, and rotation of the trunk, was induced in Cox standard strain albino male mice. The mice, weighing 18-24 grams, were fasted overnight and given the test compound by gavage in an acacia suspension (5%) 60 minutes before writhing was induced by the intraperitoneal administration of 55 mg./kg. of acetic acid (0.55 percent). Each treatment group consisted of 3 mice. The total number of writhes for the treatment group was determined during a 5-minute observation starting 5 minutes after acetic acid administration.
(In general: An intraperitoneal irritant provokes the stretching counted in writhing tests.)

For a further assay, the target named is GABA receptor. Briefly: In vitro activation of GABA binding ([3H]GABA, Triton X-100 treated membrane protein). The note with it: average of one or more tests, read-out: SC50 GABA (nanomolar concentration producing a 50% increase in binding). On the procedure: (§1) The novel compounds of this invention were examined for their in vitro ability to activate GABA and benzodiazepine (BZ) binding. To measure the effect of a compound on GABA binding, Triton X-100 (octylphenoxy polyethoxyethanol, Rohm and Haas Co.) treated membrane protein was incubated in the presence of the compound and [^3 H]GABA as detailed by Horng and Wong, J. Neurochemistry, 32 (5), 1379 (1979). To examine BZ binding, H-flunirazepam and the compounds were incubated with native membrane protein as reported by Wong, et al, Brain Res. Bull., 5 (Suppl. 2), 853 (1980). The results in Table 1 are the nanomolar concentrations of compounds (by Example No.) which produced a 50 percent increase (SC50) in GABA or BZ binding. Each result is the average of one or more tests.

Assay [3] in a line: Electroshock Induced Convulsion Inhibition Assay. It is filed as in vivo, Cox standard strain albino male mice. The note with it: Mus musculus. On the procedure: (§2) In this assay, a compound to be tested was suspended in acacia (5%) and administered by gavage to each of three Cox standard strain albino male mice (18-24 grams) at the dose level being investigated. One hour after the oral administration, a water solution of metrazole (pentylenetetrazole) was administered by the intraperitoneal route to each mouse at a dose of 110 mg./kg. […] A score of 0 was assigned to a mouse not showing any signs of convulsant activity; a score of 1 was given to mice developing clonic convulsions; a score of 2 was given to mice showing flexor tonic convulsions; a score of 3 was given to mice showing extensor tonic convulsions; and a score of 4 was given to mice that died within the one hour. The scores of the three mice were totalled for each compound and dose level. The scores can range from 0 to 12; a score of 6 or less was interpreted as indicative of an active compound at that dose level. Values reported in Table 2 below are the minimum oral dose levels (mg./kg.) where activity as defined above was observed.
The drug administration and test conditions used in this assay were similar to those used in the metrazole induced convulsion inhibition assay above except that a 0.1 second, 50 milliampere electroshock through corneal electrodes induced the convulsion instead of metrazole. The animals were examined and evaluated immediately after the electroshock and were scored as before. The results in Table 2 are expressed as the lowest dose of each compound tested which was active as previously defined. For comparison, 18 milliamperes was usually sufficient to produce extensor tonic convulsions in about half of the control animals; at 50 milliamperes, almost all control animals died. Diazepam was active at about 1 mg./kg.

The target of the next assay is benzodiazepine receptor. Briefly: In vitro activation of benzodiazepine (BZ) binding (flunirazepam, native membrane protein). The note with it: average of one or more tests, read-out: SC50 BZ (nanomolar concentration producing a 50% increase in binding). On the procedure: as §1
A short description of assay [4]: Metrazole Induced Convulsion Inhibition Assay. It is filed as in vivo, Cox standard strain albino male mice. The settings on record: Mus musculus. As for the experimental part:
as §2

Where [5] appears, read: oral gavage 30 min before feeding, active = weight gain of less than 10% of weight lost on fasting, read-out: Minimum active oral dose, Appetite Suppression.
Setting [6] is: oral gavage 60 min before acetic acid 55 mg./kg. i.p., active = less than ten writhes, read-out: Minimum active oral dose, Mouse Writhing.
The mark [7] stands for this setting: oral, 0.1 second, 50 milliampere corneal electroshock, active = total score of 6 or less, read-out: Minimum active oral dose, Electro-Shock.
The mark [8] stands for this setting: oral gavage, 1 h before metrazole 110 mg./kg. i.p., active = total score of 6 or less (3 mice, range 0-12), read-out: Minimum active oral dose, Metrazole.

Structures can show the parent of a compound that is named as a salt.

For the compound `CC(=O)OC1CCCN(c2nnc(-c3ccc(C)cc3)c(-c3ccc(C)cc3)n2)C1` (stereo not shown) [Example 24, 1-[5,6-bis(4-methylphenyl)-1,2,4-triazine-3-yl]-3-piperidinol, acetate (ester)], the minimal effective dose in assay [1] (setting [5]), in assay [2] (setting [6]), in assay [3] (setting [7]) and in assay [4] (setting [8]) was > 200 mg/kg in each case. Further, the EC50 at GABA receptor is 160 nM; on benzodiazepine receptor, 180 nM.
Take `CCC(=O)OC1CCN(c2nnc(-c3ccc(C)cc3)c(-c3ccc(C)cc3)n2)CC1` [Example 15, 1-[5,6-bis(4-methylphenyl)-1,2,4-triazin-3-yl]-4-piperidinol, propanoate (ester)]: the minimal effective dose in assay [1] (setting [5]), in assay [2] (setting [6]), in assay [3] (setting [7]) and in assay [4] (setting [8]) was 12.5 mg/kg in each case. The results for the EC50 on GABA receptor and on benzodiazepine receptor were 10 nM and 19 nM, respectively.
With `CC(=O)Oc1ccccc1C(=O)O` [Aspirin, acetyl salicylic acid, reference compound], the minimal effective dose in assay [2] (po, read-out: dose showing activity, mouse writhing (reference)) was 200 mg/kg.
For the compound `Cc1ccc(-c2nnc(N3CCCC(O)C3)nc2-c2ccc(C)cc2)cc1` (stereo not shown) [Example 23, 1-[5,6-bis(4-methylphenyl)-1,2,4-triazin-3-yl]-3-piperidinol], the minimal effective dose in assay [1] (setting [5]) turned out to be 12.5 mg/kg; in assay [2] (setting [6]), 12.5 mg/kg; in assay [3] (setting [7]) it was 50 mg/kg; in assay [4] (setting [8]), 50 mg/kg. The EC50 on GABA receptor was determined as 400 nM; on benzodiazepine receptor, 700 nM.
`Cc1ccc(-c2ncc(N3CCC(O)CC3)nc2-c2ccc(C)cc2)cc1` [Example 42, 1-[5,6-bis(4-methylphenyl)pyrazin-2-yl]-4-piperidinol]: the minimal effective dose in assay [1] (setting [5]) was determined as 12.5 mg/kg; in assay [2] (setting [6]), 12.5 mg/kg; in assay [3] (setting [7]), 50 mg/kg; in assay [4] (setting [8]) it was 12.5 mg/kg. Besides, the EC50 on GABA receptor was determined as 1200 nM; on benzodiazepine receptor it was 400 nM.
In the case of `CC(=O)OC1CCN(c2nnc(-c3ccc(C)cc3)c(-c3ccc(C)cc3)n2)CC1` [Example 12, 1-[5,6-bis(4-methylphenyl)-1,2,4-triazin-3-yl]-4-piperidinol, acetate (ester)], the minimal effective dose was 12.5 mg/kg in assay [1] (setting [5]), 12.5 mg/kg in assay [2] (setting [6]), 25 mg/kg in assay [3] (setting [7]) and 6.25 mg/kg in assay [4] (setting [8]). In addition, the results for the EC50 on GABA receptor and on benzodiazepine receptor were 3.3 nM and 5.5 nM, respectively.
Take `Cc1ccc(-c2nnc(N3CCC(OS(=O)(=O)c4ccc(C)cc4)CC3)nc2-c2ccc(C)cc2)cc1` [Example 33, 1-[5,6-bis(4-methylphenyl)-1,2,4-triazin-3-yl]-4-piperidinol, 4-methylbenzene sulfonate (ester)]: the minimal effective dose in assay [1] (setting [5]), in assay [2] (setting [6]), in assay [3] (setting [7]) and in assay [4] (setting [8]) was > 200 mg/kg in each case. Also, the EC50 on GABA receptor is 8000 nM; at benzodiazepine receptor, 1200 nM.
In the case of `Cc1ccc(-c2nnc(N3CCC(=O)CC3)nc2-c2ccc(C)cc2)cc1` [Example 39, 1-[5,6-bis(4-methylphenyl)-1,2,4-triazin-3-yl]-4-piperidinone], the minimal effective dose in assay [1] (setting [5]) turned out to be 12.5 mg/kg; in assay [2] (setting [6]) it was 50 mg/kg; in assay [3] (setting [7]), 50 mg/kg; in assay [4] (setting [8]), 50 mg/kg. For the same compound, the EC50 on GABA receptor was 200 nM; at benzodiazepine receptor it was 430 nM.
As for `Cc1ccc(-c2nnc(N3CCCCC3)nc2-c2ccc(C)cc2)cc1` [Example 20, 5,6-bis(4-methylphenyl)-3-(1-piperidinyl)-1,2,4-triazine], the minimal effective dose in assay [1] (setting [5]) was 12.5 mg/kg; in assay [2] (setting [6]), 12.5 mg/kg; in assay [3] (setting [7]) it was 50 mg/kg; in assay [4] (setting [8]), 12.5 mg/kg. Moreover, the EC50 is 5200 nM on GABA receptor and 515 nM on benzodiazepine receptor.
Take `Cc1ccc(-c2nnc(N3CCC(OC(=O)c4ccccc4)CC3)nc2-c2ccc(C)cc2)cc1` [Example 17, 1-[5,6-bis(4-methylphenyl)-1,2,4-triazin-3-yl]-4-piperidinol, benzoate (ester)]: the minimal effective dose in assay [1] (setting [5]), in assay [2] (setting [6]), in assay [3] (setting [7]) and in assay [4] (setting [8]) was > 200 mg/kg each time. Further, the EC50 turned out to be 500 nM on GABA receptor and 1000 nM on benzodiazepine receptor.
As to `Cc1ccc(-c2nnc(N3CCC(O)C3)nc2-c2ccc(C)cc2)cc1` (stereo not shown) [Example 18, 1-[5,6-bis(4-methylphenyl)-1,2,4-triazin-3-yl]-3-pyrrolidinol], the minimal effective dose was 12.5 mg/kg in assay [1] (setting [5]), 200 mg/kg in assay [2] (setting [6]), 200 mg/kg in assay [3] (setting [7]) and > 200 mg/kg in assay [4] (setting [8]).
Consider `COC1CCN(c2nnc(-c3ccc(C)cc3)c(-c3ccc(C)cc3)n2)CC1` [Example 26, 3-(4-methoxy-1-piperidinyl)-5,6-bis(4-methylphenyl)-1,2,4-triazine], for which the minimal effective dose in assay [1] (setting [5]), in assay [2] (setting [6]), in assay [3] (setting [7]) and in assay [4] (setting [8]) was 6.2 mg/kg in each case. The EC50 stood at 80 nM on GABA receptor and 90 nM at benzodiazepine receptor.
`CC(=O)OC1CCN(c2nnc(-c3ccc(Cl)cc3)c(-c3ccc(Cl)cc3)n2)CC1` [Example 13, 1-[5,6-bis[4-chlorophenyl]-1,2,4-triazin-3-yl]-4-piperidinol, acetate (ester)]: the minimal effective dose was > 50 mg/kg in assay [1] (setting [5]), > 50 mg/kg in assay [2] (setting [6]), > 50 mg/kg in assay [3] (setting [7]) and 50 mg/kg in assay [4] (setting [8]). Also, the EC50 is 15 nM on GABA receptor and 12 nM on benzodiazepine receptor.
With `OC1CCN(c2nnc(-c3ccc(Cl)cc3)c(-c3ccc(Cl)cc3)n2)CC1` [Example 11, 1-[5,6-bis(4-chlorophenyl)-1,2,4-triazin-3-yl]-4-piperidinol], the minimal effective dose was 25 mg/kg in assay [1] (setting [5]), > 25 mg/kg in assay [2] (setting [6]), > 25 mg/kg in assay [3] (setting [7]) and 12.5 mg/kg in assay [4] (setting [8]).
`C[C@H](N)Cc1ccccc1` [Dextroamphetamine sulfate, reference compound]: the minimal effective dose in assay [1] (po, read-out: dose showing activity, appetite suppression (reference)) is ~2.5 mg/kg.
With `CN1C(=O)CN=C(c2ccccc2)c2cc(Cl)ccc21` [Diazepam, reference compound], the minimal effective dose in assay [3] (po, read-out: dose showing activity, electroshock test (reference)) was ~1 mg/kg; in assay [4] (po, read-out: dose showing activity, metrazole test (reference)), ~1 mg/kg.
In the case of `Cc1ccc(-c2nnc(N3CCC(C)CC3)nc2-c2ccc(C)cc2)cc1` [Example 25, 5,6-bis(4-methylphenyl)-3-(4-methyl-1-piperidinyl)-1,2,4-triazine], the minimal effective dose is 50 mg/kg in assay [1] (setting [5]), > 200 mg/kg in assay [2] (setting [6]), > 200 mg/kg in assay [3] (setting [7]) and > 200 mg/kg in assay [4] (setting [8]).
